Assay results from patent publication US20230303483A1, “USE OF STROBILURIN TYPE COMPOUNDS FOR COMBATING PHYTOPATHOGENIC FUNGI CONTAINING AN AMINO ACID SUBSTITUTION F129L IN THE MITOCHONDRIAL CYTOCHROME B PROTEIN CONFERRING RESISTANCE TO QO […]” (BASF SE, priority 2020, published 2023).

Assays:
[1] = test system: Phakopsora pachyrhizi (strain containing the amino acid substitution F129L in the mitochondrial cytochrome b protein); test: Use example 1: protective control of soybean rust on soybeans (PHAKPA P2), inoculation 2 days after spraying; type: in vivo; settings: % diseased leaf area on soybean, 16 ppm spray, inoculation 2 days after treatment, untreated controls usually >85 %
Protocol: (§1) The compound was dissolved in a mixture of acetone and/or dimethylsulfoxide and the wetting agent/emulsifier Wettol, which is based on ethoxylated alkylphenoles, in a ratio (volume) solvent-emulsifier of 99 to 1 to give a total volume of 5 ml. Subsequently, water was added to total volume of 100 ml. This stock solution was then diluted with the described solvent-emulsifier-water mixture to the final concentration given in the table below.
Use example 1. Protective control of soybean rust on soybeans caused by Phakopsora pachyrhizi (PHAKPA P2)
(§2) Leaves of potted soybean seedlings were sprayed to run-off with the previously described spray solution, containing the concentration of active ingredient or their mixture as described below. The plants were allowed to air-dry. The trial plants were cultivated for 2 days in a greenhouse chamber at 23-27° C. and a relative humidity between 60 and 80 %. Then the plants were inoculated with spores of Phakopsora pachyrhizi. The strain used contains the amino acid substitution F129L in the mitochondrial cytochrome b protein conferring resistance to Qo inhibitors. To ensure the success the artificial inoculation, the plants were transferred to a humid chamber with a relative humidity of about 95 % and 20 to 24° C. for 24 hr. The trial plants were cultivated for up to 14 days in a greenhouse chamber at 23 to 27° C. and a relative humidity between 60 and 80 %. The extent of fungal attack on the leaves was visually assessed as % diseased leaf area, the disease level of untreated controls was usually higher than 85 %.
(§3) All test results below are given for the control of phytopathogenic fungi containing the amino acid substitution F129L in the mitochondrial cytochrome b protein conferring resistance to Qo inhibitors.

[2] = test system: Phakopsora pachyrhizi (strain containing the amino acid substitution F129L in the mitochondrial cytochrome b protein); test: Use example 2: protective control of soybean rust on soybeans (PHAKPA P6), inoculation six days after spraying; type: in vivo; settings: % diseased leaf area on soybean, 16 ppm spray, inoculation six days after treatment, untreated controls usually >85 %
Protocol: as §1
Use example 2. Protective control of soybean rust on soybeans caused by Phakopsora pachyrhizi (PHAKPA P6)
as §2, with “active ingredient as described” for “active ingredient or their mixture as described”, “cultivated for six days in” for “cultivated for 2 days in”, “% and 23 to 27°” for “% and 20 to 24°”, “23 to 27° C. for” for “20 to 24° C. for”
as §3

Compound	PHAKPA Disease level (%) P2 at 16 ppm [1] [%]	PHAKPA Disease level (%) P6 at 16 ppm [2] [%]
CO/N=C(/C(=O)OC)c1ccccc1CO/N=C(\C)C#Cc1ccccc1F [Example 60]	40	17
CNC(=O)/C(=N/OC)c1ccccc1CO/N=C(\C)C#Cc1ccc(Cl)cc1C1CC1 [Example 86]	5	18
CNC(=O)/C(=N/OC)c1ccccc1CO/N=C(\C)C#Cc1ccc(OC(C)C)cc1 [Example 88]	77	60
CNC(=O)/C(=N/OC)c1cccc(C)c1CO/N=C(\C)C#Cc1ccccc1C [Example 49]	0	0
CNC(=O)/C(=N/OC)c1cccc(C)c1CO/N=C(\C)C#Cc1ccc(C)cc1 [Example 19]	0	0.6
CO/N=C(/C(=O)OC)c1ccccc1CO/N=C(\C)C#Cc1ccc(Cl)cc1 [Example 3]	70	70
CNC(=O)/C(=N/OC)c1cccc(C)c1CO/N=C(\C)C#Cc1ccccc1Cl [Example 78]	0	0
CNC(=O)/C(=N/OC)c1ccccc1CO/N=C(\C)C#Cc1cccc(Cl)c1 [Example 73]	1	0
CO/N=C(/C(=O)OC)c1ccccc1CO/N=C(\C)C#Cc1cccc(OC(F)(F)F)c1 [Example 52]	13	33
CNC(=O)/C(=N/OC)c1cccc(C)c1CO/N=C(\C)C#Cc1cccc(OC(F)(F)F)c1 [Example 27]	0	0
CO/N=C(/C(=O)OC)c1ccccc1CO/N=C(\C)C#Cc1ccc(OC(F)(F)F)cc1 [Example 12, methyl(2E)-2-methoxyimino-2-[2-[[(E)-[1-methyl-3-[4-(trifluoromethoxy)phenyl]prop-2-ynylidene]amino]oxymethyl]phenyl]acetate]	93	100
CO/N=C(/C(=O)OC)c1cccc(C)c1CO/N=C(\C)C#Cc1cccc(OC(F)(F)F)c1 [Example 28]	0	0
CO/C=C(/C(=O)OC)c1cccc(C)c1CO/N=C(\C)C#Cc1ccc(F)cc1C(=O)OC [Example 124]	14	53
CO/N=C(/C(=O)OC)c1ccccc1CO/N=C(\C)C#Cc1ccc2c(c1)OC(F)(F)O2 [Example 85]	100	83
CO/N=C(/C(=O)OC)c1cccc(C)c1CO/N=C(\C)C#Cc1ccc(Br)cc1 [Example 56]	18	37
CNC(=O)/C(=N/OC)c1cccc(C)c1CO/N=C(\C)C#Cc1ccccc1C(F)(F)F [Example 68]	0	1
CO/N=C(/C(=O)OC)c1cccc(C)c1CO/N=C(\C)C#Cc1ccc(F)cc1C(=O)OC [Example 127]	53	47
CO/N=C(/C(=O)OC)c1ccccc1CO/N=C(\C)C#Cc1ccc(Cl)cc1F [Example 90]	30	57
CNC(=O)/C(=N/OC)c1ccccc1CO/N=C(\C)C#Cc1ccc(F)cc1 [Example 8]	0	0.7
CO/N=C(/C(=O)OC)c1cccc(C)c1CO/N=C(\C)C#Cc1ccc(C)cc1 [Example 20]	2	1
CNC(=O)/C(=N/OC)c1ccccc1CO/N=C(\C)C#Cc1ccccc1Br [Example 48]	0	2
CNC(=O)/C(=N/OC)c1ccccc1CO/N=C(\C)C#Cc1cccc(OC(F)(F)F)c1 [Example 53]	0	0
CO/N=C(/C(=O)OC)c1ccccc1CO/N=C(\C)C#Cc1ccccc1C(F)(F)F [Example 67]	50	60
CNC(=O)/C(=N/OC)c1cccc(C)c1CO/N=C(\C)C#Cc1ccc(Cl)cc1 [Example 31]	0	5
CO/N=C(/C(=O)OC)c1cccc(C)c1CO/N=C(\C)C#Cc1ccc(C(F)(F)F)cc1 [Example 64]	43	60
CNC(=O)/C(=N/OC)c1ccccc1CO/N=C(/C#Cc1ccc(Cl)cc1)COC [Example 112]	38	25
CO/N=C(/C(=O)OC)c1ccccc1CO/N=C(\C)C#Cc1ccc(OC2CC2)cc1 [Example 102]	80	63
